Where “and” joins values, the source holds several entries; their conditions need not be identical. Equal entries are not always repeated. Inconclusive results and toxic doses are left out.
Test system: L1210 leukemia ip in BDF1 mice, survival T/C
Experiment: NCI In Vivo Anticancer Drug Screen. Data for tumor model L1210 Leukemia (intraperitoneal) in B6D2F1 (BDF1) mice
Details: endpoint: mean survival time, higher = longer survival
In short: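 Each compound was tested against a transplantable tumor grown in mice. The endpoint was survival, with treated animals benchmarked against vehicle controls as a simple ratio.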

[1] = dose: 12.5 mg/kg/injection, schedule: Q01DX001 (ip), vehicle: saline
[2] = dose: 25.0 mg/kg/injection, schedule: Q01DX001 (ip), vehicle: saline with Tween-80
[3] = dose: 25.0 mg/kg/injection, schedule: Q01DX001 (ip), vehicle: saline
[4] = dose: 50.0 mg/kg/injection, schedule: Q01DX001 (ip), vehicle: saline with Tween-80
[5] = dose: 50.0 mg/kg/injection, schedule: Q01DX001 (ip), vehicle: saline
[6] = dose: 100.0 mg/kg/injection, schedule: Q01DX001 (ip), vehicle: saline
[7] = dose: 200.0 mg/kg/injection, schedule: Q01DX001 (ip), vehicle: saline
[8] = dose: 100.0 mg/kg/injection, schedule: Q01DX009 (ip), vehicle: Klucel (hydroxypropylcellulose) (HPC)
[9] = dose: 200.0 mg/kg/injection, schedule: Q01DX009 (ip), vehicle: Klucel (hydroxypropylcellulose) (HPC)
[10] = dose: 100.0 mg/kg/injection, schedule: Q04DX003 (ip), vehicle: saline with Tween-80
[11] = dose: 200.0 mg/kg/injection, schedule: Q04DX003 (ip), vehicle: saline with Tween-80
[12] = dose: 400.0 mg/kg/injection, schedule: Q04DX003 (ip), vehicle: saline with Tween-80
[13] = dose: 400.0 mg/kg/injection, schedule: Q01DX009 (ip), vehicle: Klucel (hydroxypropylcellulose) (HPC)
[14] = dose: 400.0 mg/kg/injection, schedule: Q01DX001 (ip), vehicle: saline

Q: Which results are given for `O=NN(CCCl)C(=O)NC1CCC(O)CC1` (stereo unspecified)?
A: T/C (dose: 6.25 mg/kg/injection, schedule: Q01DX001 (ip), vehicle: saline with Tween-80): 121 % of control; T/C (dose: 12.5 mg/kg/injection, schedule: Q01DX001 (ip), vehicle: saline with Tween-80): 189 % of control; T/C [1]: 172 % of control and 239 % of control; T/C (dose: 13.0 mg/kg/injection, schedule: Q01DX001 (ip), vehicle: saline): 384 % of control; T/C (dose: 20.0 mg/kg/injection, schedule: Q01DX001 (ip), vehicle: saline): 494 % of control; T/C [2]: 211 % of control; T/C [3]: 198 % of control and 210 % of control and 253 % of control; T/C (dose: 26.0 mg/kg/injection, schedule: Q01DX001 (ip), vehicle: saline): 401 % of control; T/C (dose: 30.0 mg/kg/injection, schedule: Q01DX001 (ip), vehicle: saline): 494 % of control; T/C (dose: 40.0 mg/kg/injection, schedule: Q01DX001 (ip), vehicle: saline): 435 % of control; T/C (dose: 44.0 mg/kg/injection, schedule: Q01DX001 (ip), vehicle: saline): 293 % of control; T/C [4]: 264 % of control; T/C [5]: 252 % of control and 113 % of control and 176 % of control; T/C (dose: 60.0 mg/kg/injection, schedule: Q01DX001 (ip), vehicle: saline): 240 % of control; T/C (dose: 100.0 mg/kg/injection, schedule: Q01DX001 (ip), vehicle: saline with Tween-80): 92 % of control; T/C [6]: 105 % of control and 99 % of control and 110 % of control; T/C (dose: 200.0 mg/kg/injection, schedule: Q01DX001 (ip), vehicle: saline with Tween-80): 87 % of control; T/C [7]: 103 % of control and 95 % of control and 106 % of control

Q: Which T/C (dose: 50.0 mg/kg/injection, schedule: Q01DX009 (ip), vehicle: Klucel (hydroxypropylcellulose) (HPC)) does the source give for `COc1cccc2c(=O)c(C(=O)O)c[nH]c12` here?
A: 101 % of control

Q: What about the T/C (dose: 50.0 mg/kg/injection, schedule: Q04DX003 (ip), vehicle: Klucel (hydroxypropylcellulose) (HPC)) of the same compound?
A: 94 % of control

Q: What about the T/C [8] of the same compound?
A: 106 % of control

Q: And the T/C (dose: 100.0 mg/kg/injection, schedule: Q04DX002 (ip), vehicle: saline)?
A: 96 % of control

Q: And the T/C (dose: 100.0 mg/kg/injection, schedule: Q04DX003 (ip), vehicle: Klucel (hydroxypropylcellulose) (HPC))?
A: 91 % of control

Q: And the T/C [9]?
A: 107 % of control

Q: And the T/C (dose: 200.0 mg/kg/injection, schedule: Q04DX002 (ip), vehicle: saline)?
A: 96 % of control

Q: And the T/C (dose: 200.0 mg/kg/injection, schedule: Q04DX003 (ip), vehicle: Klucel (hydroxypropylcellulose) (HPC))?
A: 94 % of control

Q: And the T/C (dose: 400.0 mg/kg/injection, schedule: Q04DX002 (ip), vehicle: saline)?
A: 100 % of control

Q: Which results are given for `Cc1ccc(NCc2ccccc2)cc1`?
A: T/C (dose: 100.0 mg/kg/injection, schedule: Q04DX003 (ip), vehicle: other): 112 % of control; T/C (dose: 200.0 mg/kg/injection, schedule: Q04DX003 (ip), vehicle: other): 92 % of control

Q: `CSCSCC(CO)NS(=O)(=O)c1ccc(C)cc1` (stereo unspecified) was tested. Which T/C (dose: 100.0 mg/kg/injection, schedule: Q01DX009 (ip), vehicle: saline with Tween-80) did it give?
A: 107 % of control

Q: What about the T/C [10] of the same compound?
A: 103 % of control

Q: What about the T/C (dose: 200.0 mg/kg/injection, schedule: Q01DX009 (ip), vehicle: saline with Tween-80) of the same compound?
A: 109 % of control

Q: What about the T/C [11] of the same compound?
A: 97 % of control

Q: What about the T/C (dose: 400.0 mg/kg/injection, schedule: Q01DX009 (ip), vehicle: saline with Tween-80) of the same compound?
A: 98 % of control

Q: And the T/C [12]?
A: 102 % of control

Q: `CC(=O)c1cccc(NC(=O)Nc2ccc(CCO)cc2)c1` was tested. Which T/C [8] did it give?
A: 95 % of control

Q: And the T/C [9]?
A: 95 % of control

Q: What about the T/C [13] of the same compound?
A: 100 % of control

Q: Which T/C (dose: 12.5 mg/kg/injection, schedule: Q04DX002 (ip), vehicle: saline with Tween-80) does the source give for `CCCC/C(C)=N/Nc1ccc([N+](=O)[O-])cc1[N+](=O)[O-]` here?
A: 98 % of control

Q: And the T/C (dose: 25.0 mg/kg/injection, schedule: Q04DX002 (ip), vehicle: saline with Tween-80)?
A: 106 % of control

Q: What about the T/C (dose: 50.0 mg/kg/injection, schedule: Q04DX002 (ip), vehicle: saline with Tween-80) of the same compound?
A: 98 % of control

Q: For `CC1(C)N=C(N)N=C(N)N1CCc1ccccc1`, which T/C [2] is on record?
A: 101 % of control

Q: And the T/C [4]?
A: 104 % of control

Q: `CC12CCCCC1C(C(N)=O)C(=O)O2` (stereo unspecified) was tested. Which T/C [6] did it give?
A: 105 % of control

Q: What about the T/C [7] of the same compound?
A: 97 % of control

Q: What about the T/C [14] of the same compound?
A: 105 % of control

Q: `CC(C)=NN=C(C)C` was tested. Which T/C [1] did it give?
A: 101 % of control

Q: And the T/C (dose: 12.5 mg/kg/injection, schedule: Q01DX009 (ip), vehicle: saline)?
A: 101 % of control

Q: What about the T/C [3] of the same compound?
A: 99 % of control

Q: What about the T/C (dose: 25.0 mg/kg/injection, schedule: Q01DX009 (ip), vehicle: saline) of the same compound?
A: 100 % of control

Q: And the T/C (dose: 25.0 mg/kg/injection, schedule: Q04DX003 (ip), vehicle: saline)?
A: 100 % of control

Q: And the T/C [5]?
A: 111 % of control

Q: What about the T/C (dose: 50.0 mg/kg/injection, schedule: Q04DX003 (ip), vehicle: saline) of the same compound?
A: 102 % of control

Q: And the T/C [6]?
A: 110 % of control

Q: What does the source list for `O=C1C=C(c2ccccc2)Sc2ccccc2N1`?
A: T/C [10]: 97 % of control; T/C [11]: 100 % of control; T/C [12]: 97 % of control

Q: What does the source list for `N#CCC(O)(c1ccccc1)c1ccccc1`?
A: T/C [5]: 102 % of control; T/C [6]: 98 % of control; T/C [7]: 98 % of control; T/C [14]: 104 % of control

Q: What does the source list for `Cc1ccc(S(=O)(=O)N/N=C\c2cccc([N+](=O)[O-])c2)cc1`?
A: T/C [8]: 103 % of control; T/C [9]: 98 % of control; T/C [13]: 93 % of control

Q: For `COc1ccc2c(c1)CC[C@@H]1[C@@H]2CC[C@]2(C)/C(=N\O)CC[C@@H]12`, which T/C (dose: 100.0 mg/kg/injection, schedule: Q01DX001 (sc), vehicle: steriod suspending solution) is on record?
A: 100 % of control

Q: And the T/C (dose: 100.0 mg/kg/injection, schedule: Q04DX003 (ip), vehicle: steriod suspending solution)?
A: 102 % of control

Q: What about the T/C (dose: 200.0 mg/kg/injection, schedule: Q01DX001 (sc), vehicle: steriod suspending solution) of the same compound?
A: 100 % of control

Q: What about the T/C (dose: 200.0 mg/kg/injection, schedule: Q04DX003 (ip), vehicle: steriod suspending solution) of the same compound?
A: 100 % of control

Q: What about the T/C (dose: 400.0 mg/kg/injection, schedule: Q01DX001 (sc), vehicle: steriod suspending solution) of the same compound?
A: 97 % of control

Q: And the T/C (dose: 400.0 mg/kg/injection, schedule: Q04DX003 (ip), vehicle: steriod suspending solution)?
A: 97 % of control

Q: How did the T/C (dose: 10.0 mg/kg/injection, schedule: Q01DX001 (ip), vehicle: Klucel (hydroxypropylcellulose) (HPC)) turn out when `CC1(C)N=C(N)N=C(N)N1c1cccc(OCCOc2ccccc2[N+](=O)[O-])c1` was run?
A: 108 % of control

Q: What about the T/C (dose: 10.0 mg/kg/injection, schedule: Q01DX009 (ip), vehicle: Klucel (hydroxypropylcellulose) (HPC)) of the same compound?
A: 98 % of control and 101 % of control

Q: What about the T/C (dose: 10.0 mg/kg/injection, schedule: Q04DX002 (ip), vehicle: Klucel (hydroxypropylcellulose) (HPC)) of the same compound?
A: 94 % of control and 90 % of control

Q: And the T/C (dose: 10.0 mg/kg/injection, schedule: Q04DX003 (ip), vehicle: Klucel (hydroxypropylcellulose) (HPC))?
A: 96 % of control

Q: And the T/C (dose: 20.0 mg/kg/injection, schedule: Q01DX001 (ip), vehicle: Klucel (hydroxypropylcellulose) (HPC))?
A: 104 % of control

Q: And the T/C (dose: 20.0 mg/kg/injection, schedule: Q01DX009 (ip), vehicle: Klucel (hydroxypropylcellulose) (HPC))?
A: 102 % of control and 108 % of control

Q: What about the T/C (dose: 20.0 mg/kg/injection, schedule: Q04DX002 (ip), vehicle: Klucel (hydroxypropylcellulose) (HPC)) of the same compound?
A: 101 % of control and 120 % of control

Q: What about the T/C (dose: 20.0 mg/kg/injection, schedule: Q04DX003 (ip), vehicle: Klucel (hydroxypropylcellulose) (HPC)) of the same compound?
A: 100 % of control

Q: And the T/C (dose: 40.0 mg/kg/injection, schedule: Q01DX001 (ip), vehicle: Klucel (hydroxypropylcellulose) (HPC))?
A: 101 % of control

Q: What about the T/C (dose: 40.0 mg/kg/injection, schedule: Q01DX009 (ip), vehicle: Klucel (hydroxypropylcellulose) (HPC)) of the same compound?
A: 104 % of control and 108 % of control

Q: What about the T/C (dose: 40.0 mg/kg/injection, schedule: Q04DX002 (ip), vehicle: Klucel (hydroxypropylcellulose) (HPC)) of the same compound?
A: 94 % of control and 90 % of control

Q: What about the T/C (dose: 40.0 mg/kg/injection, schedule: Q04DX003 (ip), vehicle: Klucel (hydroxypropylcellulose) (HPC)) of the same compound?
A: 102 % of control

Q: Which results are given for `COC1CCC(N)CC1` (stereo unspecified)?
A: T/C [6]: 109 % of control; T/C [7]: 107 % of control; T/C [14]: 97 % of control

Q: How did the T/C (dose: 100.0 mg/kg/injection, schedule: Q01DX009 (ip), vehicle: saline) turn out when `NC(N)=Nc1nc2ccc([N+](=O)[O-])cc2[nH]1` was run?
A: 93 % of control

Q: And the T/C (dose: 100.0 mg/kg/injection, schedule: Q04DX003 (ip), vehicle: saline)?
A: 90 % of control

Q: What about the T/C (dose: 200.0 mg/kg/injection, schedule: Q01DX009 (ip), vehicle: saline) of the same compound?
A: 91 % of control

Q: What about the T/C (dose: 200.0 mg/kg/injection, schedule: Q04DX003 (ip), vehicle: saline) of the same compound?
A: 94 % of control

Q: What about the T/C (dose: 400.0 mg/kg/injection, schedule: Q01DX009 (ip), vehicle: saline) of the same compound?
A: 96 % of control

Q: What about the T/C (dose: 400.0 mg/kg/injection, schedule: Q04DX003 (ip), vehicle: saline) of the same compound?
A: 94 % of control

— PubChem BioAssay AID248 (DTP/NCI, 2004)
